Data published in patent US11311012B1, “Bacterial control in fermentation systems” (Clean Chemistry, Inc., priority 2017, dated 2022).
“And” between values parts separate entries of the source, which are not always exact repeats. Equal values may be shown once.

How the values were obtained:
[1] = ORP of oxidant solutions at pH 7; format: physicochemical; conditions: 29 mM
[2] = test system: bacteria population in stationary phase; format: cell-based
SRB = format: cell-based, bacteria
APB = format: cell-based, bacteria
yeast cells = format: cell-based, Saccharomyes cerevisiae and Schizosaccharomyces pombe

## OCl [hypochlorous acid]
[1]
  ORP: over 1.1 V (vs SHE)

## OO [hydrogen peroxide]
[1]
  ORP: about 0.5 V (vs SHE)

## CCCCCCCCCCCC[N+](C)(C)CCCCCCCCCCCC.[Br-] [DDAB, didodecyldimethylammonium bromide]
[2]
  ATP: 185 pg/mL and 291 pg/mL
  Effectiveness against bacteria in the stationary phase compared with peracetate oxidant: less effective
SRB
  SRB: 5 bottles and 6 bottles
APB
  APB: 3 bottles and 4 bottles

## [O][Cl+][O-] [Chlorine Dioxide, chlorine dioxide]
Yeast cells
  Yeast activity vs untreated mash: greater yeast activity
